Experimental data: US20210254056A1, “IDENTIFICATION AND TARGETED MODULATION OF GENE SIGNALING NETWORKS” (CAMP4 THERAPEUTICS CORPORATION, priority 2017, published 2021)

Tested on: hepatocytes
Assay: RNA-seq of hepatocytes treated with Phase III failure compounds
Conditions: hepatocytes
Experimental: RNA-seq was performed to determine the effects of the compounds on hepatocytes.
Significance was determined by the criteria of FPKM≥0.5, a log 2(fold-change)≥1, and a […].

## CCC(CC)[C@H](NC(C)=O)[C@@H]1[C@H](O)[C@@H](C(=O)O)C[C@H]1NC(=N)N.O.O.O [peramivir (trihydrate), peramivir]
Gene GPD1
  RNA-seq results, GPD1 expression: 0.37
  RNA-seq results: GPD1 expression: 0
Gene GPHN
  RNA-seq results, GPHN expression: −0.14
  RNA-seq results: GPHN expression: 0.06
Gene GTPBP3
  RNA-seq results, GTPBP3 expression: 0.32
  RNA-seq results: GTPBP3 expression: 0.07
Gene GUSB
  RNA-seq results, GUSB expression: −0.26
  RNA-seq results: GUSB expression: 0.23
Gene GYG1
  RNA-seq results, GYG1 expression: −0.32
  RNA-seq results: GYG1 expression: 0.02
Gene GYS1
  RNA-seq results, GYS1 expression: 0.05
  RNA-seq results: GYS1 expression: 0.12
Gene GYS2
  RNA-seq results, GYS2 expression: −0.03
  RNA-seq results: GYS2 expression: −0.13
Gene H6PD
  RNA-seq results, H6PD expression: 0.18
  RNA-seq results: H6PD expression: −0.01
Gene H19
  RNA-seq results, H19 expression: −0.21
  RNA-seq results: H19 expression: 0.34
Gene HAL
  RNA-seq results, HAL expression: −0.09
  RNA-seq results: HAL expression: −0.17
Gene HAX1
  RNA-seq results, HAX1 expression: −0.12
  RNA-seq results: HAX1 expression: 0.15
Gene HBA1
  RNA-seq results, HBA1 expression: 1.07
  RNA-seq results: HBA1 expression: 0.04
Gene HBB
  RNA-seq results, HBB expression: 0.07
  RNA-seq results: HBB expression: −0.54
Gene HGD
  RNA-seq results, HGD expression: −0.10
  RNA-seq results: HGD expression: −0.18
Gene HLA-B
  RNA-seq results, HLA-B expression: 0.05
  RNA-seq results: HLA-B expression: 0.18
Gene HMBS
  RNA-seq results, HMBS expression: −0.09
  RNA-seq results: HMBS expression: 0
Gene HMGCR
  RNA-seq results, HMGCR expression: −0.11
  RNA-seq results: HMGCR expression: −0.29
Gene HMGCS2
  RNA-seq results, HMGCS2 expression: −0.21
  RNA-seq results: HMGCS2 expression: −0.28
Gene HMOX1
  RNA-seq results, HMOX1 expression: 0.22
  RNA-seq results: HMOX1 expression: 1.28
Gene HNF1A
  RNA-seq results, HNF1A expression: 0.33
  RNA-seq results: HNF1A expression: 0.11
Gene HNF1B
  RNA-seq results, HNF1B expression: −0.02
  RNA-seq results: HNF1B expression: −0.15
Gene HNF4A
  RNA-seq results, HNF4A expression: 0.30
  RNA-seq results: HNF4A expression: −0.01
Gene HOGA1
  RNA-seq results, HOGA1 expression: 0.80
  RNA-seq results: HOGA1 expression: 0.01
Gene HPD
  RNA-seq results, HPD expression: 0.10
  RNA-seq results: HPD expression: 0.06
Gene HPGD
  RNA-seq results, HPGD expression: −0.69
  RNA-seq results: HPGD expression: −0.7
Gene HPS4
  RNA-seq results, HPS4 expression: −0.04
  RNA-seq results: HPS4 expression: 0.26
Gene HPS5
  RNA-seq results, HPS5 expression: −0.12
  RNA-seq results: HPS5 expression: −0.18
Gene HPS6
  RNA-seq results, HPS6 expression: 0.31
  RNA-seq results: HPS6 expression: 0.23
Gene HPX
  RNA-seq results, HPX expression: −0.17
  RNA-seq results: HPX expression: 0.2
Gene HRAS
  RNA-seq results, HRAS expression: −0.15
  RNA-seq results: HRAS expression: 0.31
Gene HRSP12
  RNA-seq results, HRSP12 expression: −0.47
  RNA-seq results: HRSP12 expression: −0.3
Gene HSD3B7
  RNA-seq results, HSD3B7 expression: −0.05
  RNA-seq results: HSD3B7 expression: 0.26
Gene HSD17B10
  RNA-seq results, HSD17B10 expression: −0.09
  RNA-seq results: HSD17B10 expression: 0.15
Gene HYLS1
  RNA-seq results: HYLS1 expression: −0.60
Gene ID1
  RNA-seq results: ID1 expression: 0.13
Gene IDH1
  RNA-seq results: IDH1 expression: −0.29
Gene IDH2
  RNA-seq results: IDH2 expression: −0.11
Gene IDUA
  RNA-seq results: IDUA expression: 0.23
Gene IFIH1
  RNA-seq results: IFIH1 expression: −0.40
Gene IFNAR2
  RNA-seq results: IFNAR2 expression: −0.51
Gene IFT27
  RNA-seq results: IFT27 expression: −0.11
Gene IFT80
  RNA-seq results: IFT80 expression: 0.00
Gene IFT122
  RNA-seq results: IFT122 expression: −0.15
Gene IFT140
  RNA-seq results: IFT140 expression: 0.44
Gene IFT172
  RNA-seq results: IFT172 expression: 0.36
Gene IGFALS
  RNA-seq results: IGFALS expression: 0.33
Gene IKBKG
  RNA-seq results: IKBKG expression: 0.48
Gene IL1RN
  RNA-seq results: IL1RN expression: −0.20
Gene IL2RG
  RNA-seq results: IL2RG expression: −0.08
Gene INSR
  RNA-seq results: INSR expression: 0.01
Gene INVS
  RNA-seq results: INVS expression: −0.15
Gene ISYNA1
  RNA-seq results: ISYNA1 expression: 0.20
Gene ITGB3
  RNA-seq results: ITGB3 expression: 0.02
Gene IYD
  RNA-seq results: IYD expression: −0.15
Gene JAG1
  RNA-seq results: JAG1 expression: 0.14
Gene JAK2
  RNA-seq results: JAK2 expression: −0.26
Gene KCTD7
  RNA-seq results: KCTD7 expression: 0.26
Gene KCTD11
  RNA-seq results: KCTD11 expression: 0.53
Gene KHK
  RNA-seq results: KHK expression: 0.13
Gene KIAA0586
  RNA-seq results: KIAA0586 expression: −0.32
Gene KMT2D
  RNA-seq results: KMT2D expression: 0.57
Gene KPTN
  RNA-seq results: KPTN expression: 0.03
Gene KRIT1
  RNA-seq results: KRIT1 expression: −0.32
Gene KRT18
  RNA-seq results: KRT18 expression: 0.14
Gene KYNU
  RNA-seq results: KYNU expression: −0.28
Gene LAMB2
  RNA-seq results: LAMB2 expression: 0.14
Gene LCAT
  RNA-seq results: LCAT expression: 0.18
Gene LDHB
  RNA-seq results: LDHB expression: −0.23
Gene LDLR
  RNA-seq results: LDLR expression: 0.23
Gene LDLRAP1
  RNA-seq results: LDLRAP1 expression: 0.03
Gene LIPC
  RNA-seq results: LIPC expression: −0.23
Gene LIPT1
  RNA-seq results: LIPT1 expression: −0.63
Gene LMNB2
  RNA-seq results: LMNB2 expression: 0.36
Gene LPA
  RNA-seq results: LPA expression: 0.04
Gene LPIN1
  RNA-seq results: LPIN1 expression: −0.08
Gene LPIN2
  RNA-seq results: LPIN2 expression: 0.08
Gene LRBA
  RNA-seq results: LRBA expression: −0.14
Gene LRP5
  RNA-seq results: LRP5 expression: 0.14
Gene LYRM4
  RNA-seq results: LYRM4 expression: −0.40
Gene LYST
  RNA-seq results: LYST expression: −0.05
Gene MAN1A1
  RNA-seq results: MAN1A1 expression: −0.36
Gene MAN2B1
  RNA-seq results: MAN2B1 expression: 0.14
Gene MAOB
  RNA-seq results: MAOB expression: −0.07
Gene MAT1A
  RNA-seq results: MAT1A expression: 0.14
Gene MBL2
  RNA-seq results: MBL2 expression: −0.25
